Measurements: patent publication US20050130903A1, “Therapeutic agents and methods of use thereof for the modulation of angiogenesis” (priority 2000, published 2005)
Like-named read-outs stand apart in the source and are kept apart here. Square brackets hold non-standard residues; d marks the D form. Peptide text beside a SMILES is read from it. * marks the point of attachment. ξ: configuration not given here. X1 = CO[C@H]1C([C@@]2(C)O[C@@H]2CC=C(C)C)[C@]2(CC[C@H]1OC(=O)N[C@@H](CO*)C(C)C)CO2; X2 = CO[C@@H]1[C@H](OC(=O)*)CC[C@]2(CO2)[C@H]1[C@@]1(C)O[C@@H]1CC=C(C)C; X3 = CO[C@@H]1[C@H](OC(=O)*)CC[C@]2(CO2)[C@H]1[C@@]1(C)O[C@@H]1CCC(C)C; ξP = O=C(O)C1CCCN1

Columns and labels:
MetAP2 = target: T1, MetAP2 (Homo sapiens, UniProt P50579); experiment: MetAP2 enzyme assay; assay type: biochemical
T1 construct: made in house; host or cells: insect cells
T1 sequence (P50579 whole entry): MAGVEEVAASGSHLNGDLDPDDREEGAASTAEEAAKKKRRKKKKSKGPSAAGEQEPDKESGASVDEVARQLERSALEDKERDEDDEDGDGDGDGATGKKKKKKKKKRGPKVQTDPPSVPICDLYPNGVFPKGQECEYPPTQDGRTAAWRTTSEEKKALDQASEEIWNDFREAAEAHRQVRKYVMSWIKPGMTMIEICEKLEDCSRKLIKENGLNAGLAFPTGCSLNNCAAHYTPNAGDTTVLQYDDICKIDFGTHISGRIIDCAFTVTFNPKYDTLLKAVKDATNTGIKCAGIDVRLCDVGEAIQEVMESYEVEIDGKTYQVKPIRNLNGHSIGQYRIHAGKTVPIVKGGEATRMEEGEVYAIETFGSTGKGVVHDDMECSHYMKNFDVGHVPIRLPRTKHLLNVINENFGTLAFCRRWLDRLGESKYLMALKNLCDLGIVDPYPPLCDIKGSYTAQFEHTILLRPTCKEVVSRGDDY
Protocol: Finally, the ability of the angiogenesis inhibitor compounds of the invention to modulate the activity of MetAP2 may be tested as follows. Recombinant human MetAP2 may be expressed and purified from insect cells as described in Li and Chang, (1996) Biochem. Biophys. Res. Commun. 227:152-159. Various amounts of angiogenesis inhibitor compound is then added to buffer H (10 mM Hepes, pH 7.35, 100 mM KCl, 10% glycerol, and […]) containing 1 nM purified recombinant human MetAP2 and incubated at 37° C. for 30 minutes. To start the enzymatic reaction a peptide containing a methionine residue, e.g., Met-Gly-Met, is added to the reaction mixture (to a concentration of 1 mM). Released methionine is subsequently quantified at different time points (e.g., at 0, 2, 3, and 5 minutes) using the method of Zou et al. (1995) Mol. Gen Genetics 246:247-253).
(§1) The angiogenesis inhibitor compounds of the invention were tested for their ability to modulate human endothelial cell growth and for their ability to modulate the activity of MetAP2. The MetAP2 enzyme assay was performed essentially as described in Turk, B. et al. (1999) Chem. & Bio. 6: 823-833, the entire contents of which are incorporated herein by reference. The bovine aortic endothelial cell growth assay (Baec assay) was performed essentially as described in Turk, B. et al. (supra), the entire contents of which are incorporated herein by reference.

[1] = tested on: human umbilical vein endothelial cells (HUVEC); experiment: human endothelial cell growth assay (Huvec assay); assay type: cell-based
Protocol: For the human endothelial cell growth assay, human umbilical vein endothelial cells (HUVEC) were maintained in Clonetics endothelial growth medium (EGM) in a 37° C. humidified incubator. Cells were detached with trypsin and pelleted by centrifugation at 300×g for 5 minutes at room temperature. HUVEC were added to 96-well plates at 5,000 cells/well. After incubating for 6 hours, the medium was replaced with 0.2 ml fresh EGM supplemented with 0.5 nM bFGF and the desired concentration of test angiogenesis inhibitor compound. Test angiogenesis inhibitor compounds were initially dissolved in ethanol at stock concentrations of either 10 mM or 0.1 mM, and subsequently diluted in EGM to obtain concentrations from […] to 10 μM. After 48 hours at 37° C., the medium was replaced with fresh bFGF-supplemented EGM and test angiogenesis inhibitor compound. Following incubation for an additional 48 hours at 37° C. MTT (3-[4,5-dimethylthiazol-2-yl]-2,5-diphenyl-tetrazolium bromide) was added to 1 mg/ml. After 2-4 hours at 37° C. the medium was replaced with 0.1 ml/well isopropanol. The plates were placed on a shaker for 15 minutes at room temperature and analyzed in a Labsystems Multiskan plate spectrophotometer at an optical density of 570 nm.

[2] = tested on: bovine aortic endothelial cell; experiment: bovine aortic endothelial cell growth assay (Baec assay); assay type: cell-based
Protocol: as §1

[3] = plasma stability in human plasma; assay type: in vitro ADME; conditions: human plasma, 37° C., 20 μM
Protocol: The plasma stability of the angiogenesis inhibitor compounds of the invention was also tested in human plasma at 37° C. (at a 20 μM concentration of the angiogenesis inhibitor compound). The matrix minus the test angiogenesis inhibitor compound was equilibrated at 37° C. for 3 minutes. The assay was initiated by addition of the test compound, and the reaction mixture was incubated in a shaking water bath at 37° C. […] The supernatant was analysed by Liquid Chromatography/Mass spectrometry (LC/MS) using a four point standard curve to obtain percent recovery.
The parent compound remaining (relative to time 0) in the incubation mixture was plotted as a function of time; a first order exponential equation was fit to the observed data, and the elimination half-lives associated with the disappearance of the test angiogenesis inhibitor compound were determined.

[4] = stability in liver microsomes; assay type: in vitro ADME, rat; conditions: NADPH regenerating system
Protocol: The stability of the angiogenesis inhibitor compounds in liver microsomes was also tested. The test angiogenesis inhibitor compound at a concentration of 3 μM was incubated with male rat liver microsomes (0.5 mg/mL protein) in the presence of a NADPH regenerating system (1 mM NADP, 10 mM G6P, 1 U/mL G6PdH2, 3 mM MgCl2 ) in 100 mM Phosphate buffer at pH 7.4 at 37° C. Incubations were performed in the presence and absence of 1 μM epoxide hydrolase (EH) inhibitor N-cyclohexyl-N′-(3-phenylpropyl)urea (M. Morisseau et al. (1999) PNAS 96:8849-54) and quantitative analysis performed using LC/MS/MS.
The parent compound remaining (relative to time 0) in the incubation mixture was plotted as a function of time; a first order exponential equation was fit to the observed data, and the elimination half-lives associated with the disappearance of the test compound were determined.

[5] = Homo sapiens, HUVEC, bFGF-supplemented EGM, MTT

Compound `COC(=O)[C@@H](CC(C)C)NC(=O)O[C@@H]1CC[C@]2(CO2)[C@@H]([C@@]2(C)O[C@@H]2CC=C(C)C)[C@@H]1OC` [Example 3, 2-{(3R,4S,5S,6R)-5-Methoxy-4-[(2R,3R)-2-methyl-3-(3-methyl-but-2-enyl)-oxiranyl]-1-oxa-spiro[2.5]oct-6-yloxycarbonylamino}-4-methyl-pentanoic acid methyl ester] has an IC50 (MetAP2; read-out: MetAP2 Assay IC50) of 5.5 nM, an IC50 [1, 5] of 0.038 nM and an IC50 ([2]; Bos taurus, BAEC) of 0.118 nM.
`CO[C@@H]1[C@H](OC(=O)NCC(=O)N2CCCC2C(=O)N[C@@H](CC(C)C)C(=O)NCC(=O)N[C@@H](CCSC)C(=O)N[C@@H](Cc2c[nH]c3ccccc23)C(=O)N[C@@H](C)C(=O)NCC(N)=O)CC[C@]2(CO2)[C@H]1[C@@]1(C)O[C@@H]1CC=C(C)C` (some centres unmarked) [Example 17] (X2-G[ξP]LGMWAG-NH2) showed an IC50 (MetAP2) of 16.7 nM and an IC50 [1] of 95 nM.
Compound `COC(=O)[C@H](NC(=O)O[C@@H]1CC[C@]2(CO2)[C@@H]([C@@]2(C)O[C@@H]2CC=C(C)C)[C@@H]1OC)C(C)C` [Example 2, 2-{(3R,4S,5S,6R)-5-Methoxy-4-[(2R,3R)-2-methyl-3-(3-methyl-but-2-enyl)-oxiranyl]-1-oxa-spiro[2.5]oct-6-yloxycarbonylamino}-3-methyl-butyric acid methyl ester] has an IC50 (MetAP2; read-out: MetAP2 Assay IC50) of 2 nM, an IC50 [1, 5] of 0.04 nM and an IC50 ([2]; Bos taurus, BAEC) of 0.048 nM.
Compound `COC(=O)[C@H](NC(=O)O[C@@H]1CC[C@]2(CO2)[C@@H]([C@@]2(C)O[C@@H]2CC=C(C)C)[C@@H]1OC)c1ccccc1` [Example 4, {(3R,4S,5S,6R)-5-Methoxy-4-[(2R,3R)-2-methyl-3-(3-methyl-but-2-enyl)-oxiranyl]-1-oxa-spiro[2.5]oct-6-yloxycarbonylamino}-phenyl-acetic acid methyl ester] has an IC50 (MetAP2; read-out: MetAP2 Assay IC50) of 2.7 nM.
For `COC(=O)[C@@H](NC(=O)O[C@@H]1CC[C@]2(CO2)[C@@H]([C@@]2(C)O[C@@H]2CC=C(C)C)[C@@H]1OC)C(C)C` [Example 1, 2-{(3R,4S,5S,6R)-5-Methoxy-4-[(2R,3R)-2-methyl-3-(3-methyl-but-2-enyl)-oxiranyl]-1-oxa-spiro[2.5]oct-6-yloxycarbonylamino}-3-methyl-butyric acid methyl ester], the IC50 (MetAP2; read-out: MetAP2 Assay IC50) was 4.7 nM, the IC50 [1, 5] was 0.018 nM and the IC50 ([2]; Bos taurus, BAEC) was 0.017 nM.
`CO[C@@H]1[C@H](OC(=O)N[C@@H](COC(=O)[C@H](C)NC(=O)[C@H](Cc2c[nH]c3ccccc23)NC(=O)[C@@H](N)CCSC)C(C)C)CC[C@]2(CO2)[C@H]1[C@@]1(C)O[C@@H]1CC=C(C)C` [Example 22, (ID#37)-(2R-{(3R,4S,5S,6R) 5-methoxy-4-[(2R,3R)2-methyl-3-(3-methyl-but-2-enyl)-oxiranyl]-1-oxa-spiro[2.5]oct-6-yloxycarbonyl}amino-3-methyl-butanol)ester] showed an IC50 [2] of 0.326 nM.
Work on `CO[C@@H]1[C@H](OC(=O)NCC(=O)N[C@@H](CCCNC(=N)N)C(=O)NCC(=O)N[C@@H](CC(=O)O)c2cccnc2)CC[C@]2(CO2)[C@H]1[C@@]1(C)O[C@@H]1CC=C(C)C` [Example 16, N-Carbamoyl (ID#40) (3R,4S,5S,6R) 5-methoxy-4-[(2R,3R)2-methyl-3-(3-methyl-but-2-enyl)-oxiranyl]-1-oxa-spiro[2.5]oct-6-yl ester] yielded an IC50 [2] greater than 100 nM.
With `CO[C@H]1C([C@@]2(C)O[C@@H]2CC=C(C)C)[C@]2(CC[C@H]1OC(=O)N[C@@H](COC(=O)[C@H](C)NC(=O)[C@H](Cc1c[nH]c3ccccc13)NC(=O)[C@H](CCSC)NC(=O)CNC(=O)[C@H](CC(C)C)NC(=O)[C@@H]1CCCN1C(C)=O)C(C)C)CO2` (stereo partly drawn) [Example 20, (ID#24)-(2R-{(3R,4S,5S,6R) 5-methoxy-4-[(2R,3R)2-methyl-3-(3-methyl-but-2-enyl)-oxiranyl]-1-oxa-spiro[2.5]oct-6-yloxycarbonyl}amino-3-methyl-butanol)ester] (Ac-PLGMWA-X1) the recovery at 0 min, 20 μM ([3]; 0 min, read-out: Percent Recovery (Remaining) 0 min) was 110%, the recovery at 15 min, 20 μM ([3]; 15 min, read-out: Percent Recovery (Remaining) 15 min) was 114% and the recovery at 30 min, 20 μM ([3]; 30 min, read-out: Percent Recovery (Remaining) 30 min) was 114%. For the same compound, the recovery at 60 min, 20 μM ([3]; 60 min, read-out: Percent Recovery (Remaining) 60 min) was 120%, the recovery at 90 min, 20 μM ([3]; 90 min, read-out: Percent Recovery (Remaining) 90 min) was 106% and the recovery at 120 min, 20 μM ([3]; 120 min, read-out: Percent Recovery (Remaining) 120 min) was 103%. For the same compound, the half-life at 20 μM ([3]; first order fit, read-out: T1/2) was no less than 500 min.
With `CO[C@@H]1[C@H](OC(=O)N[C@@H](COC(=O)CNC(=O)[C@@H](N)CCSC)C(C)C)CC[C@]2(CO2)[C@H]1[C@@]1(C)O[C@@H]1CC=C(C)C` [Example 23, (ID#38)-(2R-{(3R,4S,5S,6R) 5-methoxy-4-[(2R,3R)2-methyl-3-(3-methyl-but-2-enyl)-oxiranyl]-1-oxa-spiro[2.5]oct-6-yloxycarbonyl}amino-3-methyl-butanol)ester] the IC50 [2] was 0.207 nM.
For `COc1ccc(C[C@H](NC(=O)[C@H](CC(=O)O)NC(=O)CNC(=O)[C@H](CCCNC(=N)N)NC(=O)CNC(=O)O[C@@H]2CC[C@]3(CO3)[C@@H]([C@@]3(C)O[C@@H]3CCC(C)C)[C@@H]2OC)C(=O)N[C@@H](CCCNC(=N)N)C(=O)N[C@@H](CCC(=O)O)C(N)=O)cc1` [Example 14] (X3-GRGDY(Me)RE-NH2), the IC50 (MetAP2) was 4000 nM and the IC50 [1] was greater than 10000 nM.
In the case of `CO[C@@H]1[C@H](OC(=O)NC(=O)CCl)CC[C@]2(CO2)[C@H]1[C@@]1(C)O[C@@H]1CC=C(C)C` [TNP-470, reference compound], the “T1/2 (with EH inhibitor)” value ([4]; male rat liver microsomes 0.5 mg/mL, 3 μM, with 1 μM EH inhibitor) is reported as greater than 1.0 min and the half-life at 3 μM ([4]; pH 7.4, male rat liver microsomes 0.5 mg/mL, without EH inhibitor, read-out: T1/2 (without EH inhibitor)) is reported as greater than 1 min.
